Assay results: patent publication US20080226579A1, “Novel Resinate Complex of S-Clopidogrel and Production Method Thereof” (Chong Kun Dang Pharmaceutical Corp., priority 2005, published 2008)

Test: Heat stability test (stress storage at 80° C., clopidogrel content by HPLC)
Assay type: physicochemical
Conditions: tightly closed container at 80° C., day 3, content of clopidogrel by HPLC
Experimental: Each of the (+)-clopidogrel isomer-resinate complex, so obtained from Examples 1, 2 and 8, including a solid form of (+)-clopidogrel optical isomer-Amberlite complex and (+)-clopidogrel isomer (free base), so obtained from Comparative examples 1 and 2, were put into a tightly closed container at 80° C. to determine the contents of clopidogrel in the baseline, day 1 and day 3 by HPLC analysis in accordance with a content uniformity test of the U.S. Pharmacopoeia.
(HPLC Analysis) • Column: ULTRON ES-OVM chiral 5 ? , 4.6×250 mm • Mobile phase: 0.01 M potassium dihydrogen phosphate solution/acetonitrile 75:25 • Flow rate: 1 mL/min • Column temperature: Room temperature • Detector: Ultraviolet absorption spectrophotometer (detection wavelength: 220 nm) • Injection volume: 10 ?

For COC(=O)[C@H](c1ccccc1Cl)N1CCc2sccc2C1 [(+)-clopidogrel isomer (free base), methyl(+)-(S)-(2-chlorophenyl)(6,7-dihydro-4H-thieno[3,2-c]pyridine-5-yl)acetate], the “decrease in content at day 3” value was 70%.
